According to paper PMC6873218, “Functional Expression of Multidrug Resistance Protein 4 MRP4/ABCC4” (Slas Discovery, 2019):

Molecular target: T1, Multidrug resistance protein 4 (MRP4/ABCC4) (Homo sapiens, UniProt O15439)
T1 construct: recombinant human MRP4-his6 in Sf9 membrane vesicles
T1 sequence (O15439 1-1325): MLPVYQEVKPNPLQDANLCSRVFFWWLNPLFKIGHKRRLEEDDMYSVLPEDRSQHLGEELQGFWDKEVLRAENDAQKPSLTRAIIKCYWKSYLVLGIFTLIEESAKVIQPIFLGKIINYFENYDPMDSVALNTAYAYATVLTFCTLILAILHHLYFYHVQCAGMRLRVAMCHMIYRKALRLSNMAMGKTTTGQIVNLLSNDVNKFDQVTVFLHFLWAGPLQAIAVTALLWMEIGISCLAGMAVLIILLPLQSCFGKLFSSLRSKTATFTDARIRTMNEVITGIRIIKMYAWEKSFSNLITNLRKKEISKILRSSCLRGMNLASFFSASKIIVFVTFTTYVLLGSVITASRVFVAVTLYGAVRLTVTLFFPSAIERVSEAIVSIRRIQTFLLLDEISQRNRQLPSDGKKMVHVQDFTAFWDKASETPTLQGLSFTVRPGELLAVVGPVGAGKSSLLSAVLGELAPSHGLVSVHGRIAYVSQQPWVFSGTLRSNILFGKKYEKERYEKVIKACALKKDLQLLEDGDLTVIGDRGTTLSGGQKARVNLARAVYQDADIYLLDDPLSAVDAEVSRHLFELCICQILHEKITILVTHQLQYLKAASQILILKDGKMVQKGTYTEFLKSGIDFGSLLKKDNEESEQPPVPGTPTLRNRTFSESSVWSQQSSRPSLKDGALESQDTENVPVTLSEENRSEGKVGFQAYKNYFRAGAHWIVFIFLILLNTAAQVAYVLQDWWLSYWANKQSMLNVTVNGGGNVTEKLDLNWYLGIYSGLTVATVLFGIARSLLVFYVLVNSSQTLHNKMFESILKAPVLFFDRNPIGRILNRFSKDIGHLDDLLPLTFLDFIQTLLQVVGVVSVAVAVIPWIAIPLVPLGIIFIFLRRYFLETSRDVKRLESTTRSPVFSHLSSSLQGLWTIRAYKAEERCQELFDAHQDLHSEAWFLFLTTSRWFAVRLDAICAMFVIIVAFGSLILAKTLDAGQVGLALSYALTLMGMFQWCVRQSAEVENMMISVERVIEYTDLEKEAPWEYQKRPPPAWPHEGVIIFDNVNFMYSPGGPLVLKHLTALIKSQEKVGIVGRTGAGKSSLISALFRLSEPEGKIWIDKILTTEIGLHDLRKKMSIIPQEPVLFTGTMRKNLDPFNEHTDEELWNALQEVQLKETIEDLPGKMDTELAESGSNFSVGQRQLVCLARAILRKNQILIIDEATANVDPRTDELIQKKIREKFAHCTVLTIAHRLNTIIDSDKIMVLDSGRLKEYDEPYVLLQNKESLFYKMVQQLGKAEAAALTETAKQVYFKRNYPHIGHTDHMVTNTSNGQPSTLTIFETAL
Test: fluorescent vesicular transport assay, ATP-dependent uptake in Sf9 MRP4 membrane vesicles against control vesicles (Km)
Assay type: biochemical

“8-(2-[fluoresceinyl]aminoethylthio)adenosine-3′,5′-cyclic monophosphate [fluo-cAMP]” was tested, and the Km was 5.8 µM.
